Results reported in patent US9809623B2, “α4β7 peptide monomer and dimer antagonists” (Protagonist Therapeutics, Inc., priority 2014, dated 2017).
Read-outs that look alike come from different tables or passages of the source. Numbered stars: 1 amine (or outer) side, 2 acyl side, 3 side chain; on linkers, the order of the positions; unused ones are H or OH. Bridge positions count the residues as written; N and C are the ends. Square brackets hold non-standard residues; d marks the D form. Peptide text beside a SMILES is read from it. I, II: the chains in the order shown. Phe(4-tBu) = CC(C)(C)c1ccc(C[C@H](N)C(=O)O)cc1; Bip = N[C@@H](Cc1ccc(-c2ccccc2)cc1)C(=O)O; Diglycolyl = O=C(COCC(=O)[*:2])[*:1]; NMeR = CN[C@@H](CCCNC(=N)N)C(=O)O; β3hE = N[C@@H](CCC(=O)O)CC(=O)O; NMeK = CN[C@@H](CCCCN)C(=O)O; Pen = CC(C)(S)[C@H](N)C(=O)O

Biological target: T1, α4β7 (Mus musculus, UniProt P26011+Q00651)
T1 construct: host or cells: TK1 mouse T cells
T1 sequence (Q00651 34-1039 limits assumed): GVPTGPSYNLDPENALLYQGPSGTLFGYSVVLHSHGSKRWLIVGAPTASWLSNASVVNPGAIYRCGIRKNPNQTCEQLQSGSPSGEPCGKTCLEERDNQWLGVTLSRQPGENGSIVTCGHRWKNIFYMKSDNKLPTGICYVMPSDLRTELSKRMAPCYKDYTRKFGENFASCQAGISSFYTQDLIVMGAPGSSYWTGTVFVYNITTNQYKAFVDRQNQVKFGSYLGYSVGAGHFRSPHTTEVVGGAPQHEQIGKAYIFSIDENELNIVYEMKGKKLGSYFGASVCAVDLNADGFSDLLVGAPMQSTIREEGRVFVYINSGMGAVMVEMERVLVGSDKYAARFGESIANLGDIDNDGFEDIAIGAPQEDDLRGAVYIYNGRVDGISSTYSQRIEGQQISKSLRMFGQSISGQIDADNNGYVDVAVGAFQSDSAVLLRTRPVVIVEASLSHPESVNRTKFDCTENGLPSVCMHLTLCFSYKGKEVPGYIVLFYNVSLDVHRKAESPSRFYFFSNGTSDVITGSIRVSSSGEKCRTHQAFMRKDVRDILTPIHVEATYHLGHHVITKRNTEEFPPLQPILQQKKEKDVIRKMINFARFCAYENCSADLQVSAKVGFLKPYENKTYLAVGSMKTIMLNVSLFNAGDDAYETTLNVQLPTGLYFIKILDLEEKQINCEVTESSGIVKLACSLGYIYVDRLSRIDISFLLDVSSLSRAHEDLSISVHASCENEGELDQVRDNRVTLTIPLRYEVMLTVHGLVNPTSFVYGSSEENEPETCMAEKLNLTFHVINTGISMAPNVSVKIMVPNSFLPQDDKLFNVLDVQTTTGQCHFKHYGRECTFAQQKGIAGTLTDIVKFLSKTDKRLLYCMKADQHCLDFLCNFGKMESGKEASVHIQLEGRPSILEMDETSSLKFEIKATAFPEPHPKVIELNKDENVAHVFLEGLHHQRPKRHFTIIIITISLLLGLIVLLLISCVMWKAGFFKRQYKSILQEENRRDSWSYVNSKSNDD
T1 sequence (P26011 20-806): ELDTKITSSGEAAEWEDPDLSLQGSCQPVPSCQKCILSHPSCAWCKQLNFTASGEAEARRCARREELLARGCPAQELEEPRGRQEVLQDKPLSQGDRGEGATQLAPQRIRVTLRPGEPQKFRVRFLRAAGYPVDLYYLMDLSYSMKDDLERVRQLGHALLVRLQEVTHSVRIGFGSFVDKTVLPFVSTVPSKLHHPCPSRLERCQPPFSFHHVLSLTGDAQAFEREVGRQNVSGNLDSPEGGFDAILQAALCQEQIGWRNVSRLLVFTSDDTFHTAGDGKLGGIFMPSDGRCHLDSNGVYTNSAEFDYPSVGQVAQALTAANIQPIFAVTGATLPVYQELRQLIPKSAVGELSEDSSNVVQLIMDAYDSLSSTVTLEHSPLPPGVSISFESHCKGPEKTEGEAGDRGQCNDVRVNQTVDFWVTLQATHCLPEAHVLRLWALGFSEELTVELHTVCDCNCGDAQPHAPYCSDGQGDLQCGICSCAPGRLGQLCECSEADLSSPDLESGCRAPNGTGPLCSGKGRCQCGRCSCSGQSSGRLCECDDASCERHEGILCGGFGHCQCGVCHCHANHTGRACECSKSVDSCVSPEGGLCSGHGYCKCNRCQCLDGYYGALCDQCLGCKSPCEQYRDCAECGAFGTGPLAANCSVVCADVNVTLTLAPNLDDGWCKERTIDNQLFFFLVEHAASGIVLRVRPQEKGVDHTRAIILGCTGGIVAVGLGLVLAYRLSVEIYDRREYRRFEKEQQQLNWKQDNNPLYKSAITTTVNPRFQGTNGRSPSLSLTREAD
Experiment: α4β7 Cell Adhesion Assay (Mouse), TK1 cells
Assay type: cell-based
Procedure: TK1 cells (ATCC # ATCC-CRL-2396) were cultured in RPMI 1640 with 2 mM L-glutamine adjusted to contain 1.5 g/L sodium bicarbonate, 4.5 g/L glucose, 10 mM HEPES, and 1.0 mM sodium pyruvate (ATCC#30-2001) and supplemented with 0.1 mM non-essential amino acids, (ATCC #30-2116) 0.05 mM 2-mercaptoethanol (Invitrogen #21985) and 10% serum (Fetal Bovine Serum, Invitrogen #16140-071), and Penicillin-Streptomycin (Invitrogen #15140-122) at 100 units of penicillin and 100 μg of streptomycin per ml. The cells were washed two times in DMEM medium (ATCC #30-2002) supplemented with 0.1% BSA, 10 mM HEPES pH 7 and 1 mM MnCl2. The cells were re-suspended in supplemented DMEM medium at a density of 4×10^6 cells/ml.
A Nunc MaxiSorp plate was coated with Recombinant human MAdCAM-1 Fc Chimera (R&D #6065-MC) at 200 ng per well in 100 μl per well in 1×PBS and incubated at 4° C. overnight. The solution was then removed by shaking, blocked with 250 ul per well PBS containing 1% BSA, and incubated at 37° C. for 1 hr. The solution was removed by shaking. DATK 32 (anti-mouse α4β7) and peptides were diluted by serial dilution in a final volume of 50 ul per well (2× concentration). To each well, 50 ul of cells (200,000 cells) are added and the plate is incubated at 37° C., 5% CO2 for 30-45 min to allow cell adhesion. The plate was manually washed three times with supplemented DMEM, 100 ul per wash. After the final wash, 100 ul/well of supplemented DMEM and […] of MTT reagent (ATTC cat#30-1010K) was added to each well. Wells were incubated at 37° C. with 5% CO2 for 2-3 hrs until purple precipitate was visible. 100 μl of Detergent Reagent (ATTC cat#30-1010K) was added to each well. The plate was then wrapped with Para film to prevent evaporation, and left overnight at room temperature in the dark. The plate was shaken for 5 min and the absorbance at 570 nm was measured. To calculate the dose response, the absorbance value of control wells not containing cells was subtracted from each test well.

[1] = Table 3-B, Potency (α4β7), range classes, read-out: α4β7 cell(MU) IC50

Row | SMILES | IC50 (Table 4-B, read-out: Cell Adhesion α4β7 Mouse IC50) [µM] | IC50 [1] [µM]
1 | CC(=O)N[C@@H]1C(=O)N(C)[C@@H](CCCNC(=N)N)C(=O)N[C@@H](CO)C(=O)N[C@@H](CC(=O)O)C(=O)N[C@@H]([C@@H](C)O)C(=O)N[C@@H](CC(C)C)C(=O)N[C@H](C(=O)N[C@@H](Cc2c[nH]c3ccccc23)C(=O)N[C@@H](CCC(=O)O)CC(=O)N[C@H](CCCCNC(=O)COCC(=O)NCCCC[C@@H](NC(=O)C[C@H](CCC(=O)O)NC(=O)[C@H](Cc2c[nH]c3ccccc23)NC(=O)[C@H]2NC(=O)[C@H](CC(C)C)NC(=O)[C@H]([C@@H](C)O)NC(=O)[C@H](CC(=O)O)NC(=O)[C@H](CO)NC(=O)[C@H](CCCNC(=N)N)N(C)C(=O)[C@@H](NC(C)=O)C(C)(C)SSC2(C)C)C(N)=O)C(N)=O)C(C)(C)SSC1(C)C [compound 213, [Ac-Pen-(N-Me-Arg)-Ser-Asp-Thr-Leu-Pen-Trp-(β-homoGlu)-(D-Lys)-NH2]2-DIG] (I: Ac-[Pen][NMeR]SDTL[Pen]W[β3hE][dK]-NH2 / II: Ac-[Pen][NMeR]SDTL[Pen]W[β3hE][dK]-NH2; disulfide I:1-I:7, II:1-II:7; linker I:10-II:10 via Diglycolyl) | 0.0042 | 
2 | CC(=O)N[C@@H]1C(=O)N(C)[C@@H](CCCNC(=N)N)C(=O)N[C@@H](CO)C(=O)N[C@@H](CC(=O)O)C(=O)N[C@@H]([C@@H](C)O)C(=O)N[C@@H](CC(C)C)C(=O)N[C@H](C(=O)N[C@@H](Cc2c[nH]c3ccccc23)C(=O)N[C@@H](CCC(=O)O)C(=O)N[C@H](CCCCNC(=O)COCC(=O)NCCCC[C@@H](NC(=O)[C@H](CCC(=O)O)NC(=O)[C@H](Cc2c[nH]c3ccccc23)NC(=O)[C@H]2NC(=O)[C@H](CC(C)C)NC(=O)[C@H]([C@@H](C)O)NC(=O)[C@H](CC(=O)O)NC(=O)[C@H](CO)NC(=O)[C@H](CCCNC(=N)N)N(C)C(=O)[C@@H](NC(C)=O)C(C)(C)SSC2(C)C)C(=O)O)C(=O)O)C(C)(C)SSC1(C)C [compound 78] (I: Ac-[Pen][NMeR]SDTL[Pen]WE[dK]-OH / II: Ac-[Pen][NMeR]SDTL[Pen]WE[dK]-OH; disulfide I:1-I:7, II:1-II:7; linker I:10-II:10 via Diglycolyl) |  | < 0.01
3 | CC(=O)N[C@@H]1C(=O)N(C)[C@@H](CCCNC(=N)N)C(=O)N[C@@H](CO)C(=O)N[C@@H](CC(=O)O)C(=O)N[C@@H]([C@@H](C)O)C(=O)N[C@@H](CC(C)C)C(=O)N[C@H](C(=O)N[C@@H](Cc2ccc(-c3ccccc3)cc2)C(=O)N[C@@H](CCC(=O)O)CC(=O)N(C)[C@@H](CCCCNC(=O)COCC(=O)NCCCC[C@@H](C(N)=O)N(C)C(=O)C[C@H](CCC(=O)O)NC(=O)[C@H](Cc2ccc(-c3ccccc3)cc2)NC(=O)[C@H]2NC(=O)[C@H](CC(C)C)NC(=O)[C@H]([C@@H](C)O)NC(=O)[C@H](CC(=O)O)NC(=O)[C@H](CO)NC(=O)[C@H](CCCNC(=N)N)N(C)C(=O)[C@@H](NC(C)=O)C(C)(C)SSC2(C)C)C(N)=O)C(C)(C)SSC1(C)C [compound 150] (I: Ac-[Pen][NMeR]SDTL[Pen][Bip][β3hE][NMeK]-NH2 / II: Ac-[Pen][NMeR]SDTL[Pen][Bip][β3hE][NMeK]-NH2; disulfide I:1-I:7, II:1-II:7; linker I:10-II:10 via Diglycolyl) |  | < 0.01
4 | CC(=O)N[C@@H]1C(=O)N(C)[C@@H](CCCNC(=N)N)C(=O)N[C@@H](CO)C(=O)N[C@@H](CC(=O)O)C(=O)N[C@@H]([C@@H](C)O)C(=O)N[C@@H](CC(C)C)C(=O)N[C@H](C(=O)N[C@@H](Cc2ccc(C(C)(C)C)cc2)C(=O)N[C@@H](CCC(=O)O)CC(=O)N[C@H](CCCCN)C(N)=O)C(C)(C)SSC1(C)C [compound 153] (Ac-[Pen][NMeR]SDTL[Pen][Phe(4-tBu)][β3hE][dK]-NH2; disulfide 1-7) |  | 0.01 to 0.025
